# From patent publication US9499484B2, “Indole, indoline derivatives, compositions comprising them and uses thereof” (priority 2012, dated 2016)
# Structures can show the parent of a compound that is named as a salt. Where two headings read alike, the source gives them in different places.
# How the values were obtained:
# [1] = Radical scavenging, glucose oxidase/luminol luminescence; format: biochemical; conditions: concentration reducing luminescence/radical by 50%; mean ± SD, three independent experiments
# Method: A. Measurement of Radical Scavenging
# A mixture comprising glucose oxidase (GO), luminol, sodium selenite [IV] ([…]) and cobalt [II] (Co^+2) all in Hank's Balance Salt Solution (HBSS) was used (Ginsburg et al, 2004). The production of H2O2 produces a burst of luminescence within 30-60 sec, which lasts for 7-10 min. The luminescence involves oxidation of SEL+5 to it SEL+6 and also the generation of oxidants, which are catalyzed by Co^+2. This method mimics infection and inflammation conditions in which there is an accumulation of several oxidant species. This method provides a source of several radicals. Reduction in luminescence by the compounds is due to their ability to sequester radicals and was measured after addition of several concentrations of each compound. The concentration of each compound that reduced the luminescence by 50% was calculated.
# [2] = target: T1, AChE (UniProt P23795); format: biochemical, human or bovine erythrocytes; conditions: Table 3; 120 min incubation; read-out: IC50 AChE 120 min
# T1 sequence (P23795 1-613): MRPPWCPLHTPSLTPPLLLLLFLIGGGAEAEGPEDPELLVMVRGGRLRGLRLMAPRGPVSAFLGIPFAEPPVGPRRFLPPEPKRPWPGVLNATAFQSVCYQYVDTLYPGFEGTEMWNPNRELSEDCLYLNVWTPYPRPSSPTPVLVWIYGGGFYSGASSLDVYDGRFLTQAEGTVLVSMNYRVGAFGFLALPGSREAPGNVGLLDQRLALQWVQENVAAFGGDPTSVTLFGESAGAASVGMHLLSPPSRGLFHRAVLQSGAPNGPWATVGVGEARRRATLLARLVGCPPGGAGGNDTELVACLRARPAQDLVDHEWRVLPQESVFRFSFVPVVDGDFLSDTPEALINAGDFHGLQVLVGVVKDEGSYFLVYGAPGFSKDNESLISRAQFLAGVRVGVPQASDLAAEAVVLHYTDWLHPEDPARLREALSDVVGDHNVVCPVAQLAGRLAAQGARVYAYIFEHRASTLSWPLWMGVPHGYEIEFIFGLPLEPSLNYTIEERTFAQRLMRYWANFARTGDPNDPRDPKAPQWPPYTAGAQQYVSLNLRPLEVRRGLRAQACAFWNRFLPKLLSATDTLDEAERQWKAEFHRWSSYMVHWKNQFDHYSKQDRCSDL
# Method: (§1) B. Measurement of Acetylcholinesterase (AChE) and Butylcholinesterase (BuChE) Inhibition In Vitro
# (§2) The enzyme was incubated at 37° C. with 6-10 concentrations of the compounds tested and samples were collected at 15, 30, 60 and 120 min Aliquots were transferred to an Elisa multiscan microplate reader (Labsystems) at 15-60 sec time intervals for the determination of residual AChE activity, with Ascent PC software. […] The % inhibition of AChE by each concentration was calculated by comparison with the activity of the enzyme in the absence of drug. […] BuChE-inhibitory activity was determined as described above using BuChE (Sigma Israel) with butylthiocholine iodide (BuTh) 0.075M as a substrate.
# [3] = target: T2, BuChE (UniProt P81908); format: biochemical, human or equine serum; conditions: read-out: IC50 BuChE 120 min; Table 3; 120 min incubation
# T2 construct: 120 min incubation; BuChE IC50
# Method: as §1, §2
# [4] = test system: rat cardiac myoblasts (H9c2); assay: Protection against H2O2-induced cell death in cardiomyocytes, Alamar Blue; format: cell-based; conditions: concentration(s) giving >50% protection
# Method: C. Measurement of Protective Activity Against Oxidative Stress in Cell Cultures
# Compounds of the invention were tested for their potential to protect against cell death induced by oxidative stress in a cell line derived from rat cardiac myoblasts (H9c2) (Hescheler et al., 1991). Cells were cultured in Dulbecco's Modified Eagle's Medium (DMEM), 4500 mg/L D-glucose with 10% foetal calf serum (FCS), 10000 U/mL penicillin, […] streptomycin and 25 μg/mL Amphotericin B at 37° C. with 95% air and 5% CO2. One day prior to the measurement, cells were seeded in 96 well-plates at a density of 5,000 cells/well and incubated with 100 μM H2O2 for 1 h. […] Cells were incubated with different compounds of the invention in several concentrations ranging from 0.0001-100 μM, for 1, 4 or 7 h prior to addition of H2O2. Cell viability was measured by means of Alamar Blue (AbD Serotec, BUF012A). In order to compare the protective effect of the compounds this degree of cell death was normalized to 100% in each experiment. The effect of the drugs is expressed as percent reduction of this value.
# [5] = test system: NO, BV2 mouse microglial cells; assay: NO reduction in LPS-stimulated BV2 microglia; format: cell-based; conditions: for Reduction in NO levels by at >20%, BV2 Microglia range: concentration range, None = no reduction up till 100 nM
# Method: (§3) The BV2 mouse microglial cells were created by infecting primary mouse microglia with v-raf/v-myc oncogen-carrying retrovirus and donated by Dr. Sigal Fleisher—Berkovich (Ben-Gurion University of the Negev). The cells were cultured in RPMI 1640 containing 0.4 mM L-Glutamine, 10% FCS, 100 units/ml penicillin, 100 μg/ml streptomycin and maintained in a humidified incubator at 37° C. with 5% CO2. For measurement of the effect of compounds on the release of NO the cells were seeded in a density of 80,000 cells/ml and confluence of about 60%, and incubated with test compounds (in the absence of FCS) for […] All the medium was removed and fresh medium containing FCS and LPS (10 μg/ml) added and the cells maintained at 37° C. for 24 h. The release of NO into the medium was determined by measurement of nitrite levels using Griess reagent reaction. For measurement of protein levels of cytokines cells were seeded in a density of 80,000 and incubated with test compounds (in the absence of FCS) and then with LPS as described above. The medium was centrifuged and supernatants collected after 6 h for TNF-α (Biolegend) and after 20 h for IL-6 (Biolegend).
# [6] = test system: TNF-α, BV2 mouse microglial cells; assay: TNF-α reduction in LPS-stimulated BV2 microglia; format: cell-based; conditions: for Reduction in TNF-α levels, BV2 Microglia range: concentration range, None = no reduction up till 100 nM
# Method: as §3
# [7] = test system: NO, RAW 264.7 cells; assay: NO reduction in LPS-stimulated RAW 264.7 macrophages; format: cell-based, mouse
# [8] = test system: TNF-α, RAW 264.7 cells; assay: TNF-α reduction in LPS-stimulated RAW 264.7 macrophages; format: cell-based, mouse
# [9] = Radical scavenging, Sin1; format: biochemical; conditions: mean ± SD, three independent experiments
# [10] = test system: ChE (AChE, BuChE) in plasma, muscle, spleen, brain; conditions: for ChE inhibition in plasma, muscle, and spleen: after ip and or oral administration in mice
# Method: E. Acetylcholinesterase (AChE) and Butylcholinesterase (BuChE) Inhibition Ex Vivo
# Compounds of the invention or saline were administrated by intraperitoneal (ip) injection or gavage to groups of 6-7 male ICR or Balb C mice (5-6 weeks of age). The mice were sacrificed 15, 30, 60 or 120 min after drug administration and the brain (minus cerebellum), spleen, and muscle were rapidly removed, weighed and put on ice. Blood was also collected in heparinised tubes, centrifuged at 14000 rpm at room temperature for 4 mM to provide plasma. Phosphate buffer pH 7 was added to each tissue to produce concentrations of 1 mg/mL for brain and spleen and 8 mg/mL for muscle. The tissues were homogenised in cold phosphate buffer pH 7 containing 0.1% Triton and centrifuged at 14000 rpm. Aliquots of plasma and the supernatant of all tissues were incubated with AcTh or BuTh and DTNB in phosphate buffer pH 7 and the rate of development of the yellow colour was measured as described above. Enzyme activity was measured for each time and drug concentration and percent inhibition of the AChE or BuChE activity was calculated by comparison with that of control mice injected with saline. Results are represented as p moles acetylthiocholine or butythiocholine hydrolysed/min/gm tissue.
# [11] = Mus musculus, RAW264.7, 24 h, read-out: Reduction in NO levels, RAW Macrophages % peak reduction
# [12] = concentration range; None = no reduction up till 100 nM
# [13] = Mus musculus, RAW264.7, 6 h, read-out: Reduction in TNF-α levels, RAW Macrophages % peak reduction
# [14] = cells in μM, no effect ≦ 100 μM given as >100
SMILES,IC50 [1] [µM],IC50 [3] [µM],Cardiomyocte cell line Conc′ >50% protection H2O2 Alamar blue ([4]; cells in nM) [nM],"Reduction in NO levels by at >20%, BV2 Microglia range [5]","Reduction in TNF-α levels, BV2 Microglia range [6]","Cardiomyocte cell line Conc′ >50% protection H2O2 Alamar blue [4, 14]",also measured
"CCCCN(C)C(=O)Oc1ccc2c(c1)NCC2CCC(=O)OC (stereo not drawn) [AN-677, 3-(2-(Methoxycarbonyl)ethyl)-1-indoline-6-yl butylmethylcarbamate hydrochloride]",24.1 ± 0.18,404,1 to 10,–,–,–,IC50 [2]: 62.3 µM
"CCN(C)C(=O)Oc1ccc2c(c1)NCC2CCC(=O)O (stereo not drawn) [AN-681, 3-(6-(Ethyl(methyl)carbamoyloxy)indolin-3-yl) propanoic acid hydrochloride]",1.14 ± 0.09,10,–,None,None,–,"Emax [7, 11]: 50.1 ± 4.1%; Reduction in NO levels by at >20%, RAW Macrophages range [7, 12]: 10^−1-100 nM; Emax [8, 13]: 29.2 ± 5.6%; Reduction in TNF-α levels, RAW Macrophages range [8, 12]: 0.1 to 100 nM"
"COC(=O)CCC1CNc2cc(OC(=O)N(C)c3ccc(OC)cc3)ccc21 (stereo not drawn) [AN-685, Methyl 3-(6-((4-methoxyphenyl)(methyl)carbamoyloxy)indolin-3-yl)propanoate hydrochloride]",3.41 ± 0.02,54,0.001 to 0.1,–,–,–,–
"COC(=O)CCC1CN(C)c2cc(OC(=O)N(C)c3ccc(OC)cc3)ccc21 (stereo not drawn) [AN-687, Methyl 3-(6-((4-methoxyphenyl)(methyl)carbamoyloxy)-1-methylindolin-3-yl)propanoate hydrochloride]",2.24 ± 0.03,372,–,–,–,100 to 10000 nM,–
"CCCCN(C)C(=O)Oc1ccc2c(c1)N(C)CC2CCC(=O)OC (stereo not drawn) [AN-691, Methyl 3-(6-(butyl(methyl)carbamoyloxy)-1-methylindolin-3-yl)propanoate hydrochloride]",6.27 ± 0.05,66.8,–,–,–,100000 nM,–
"COC(=O)CCC1CNc2cccc(OC(=O)N(C)c3ccc(OC)cc3)c21 (stereo not drawn) [AN-819, 3-(3-methoxy-3-oxopropyl)-4-(((4-methoxyphenyl)(methyl)carbamoyl)oxy) indolin-1-ium hydrochloride]",19 ± 0.6,4.6,0.001 to 1,–,–,–,"IC50 [9]: 3.18 ± 0.2 µM; ChE inhibition in plasma, muscle, and spleen [10]: inhibited ChE"
"COC(=O)CCC1CNc2cccc(O)c21 (stereo not drawn) [AN-832, Methyl 3-(4-hydroxyindolin-3-yl)propanoate hydrochloride]",0.67 ± 0.05,–,–,None,10^−1-100 nM,–,"IC50 [9]: 3.54 ± 0.21 µM; Reduction in TNF-α levels, BV2 Microglia % peak reduction [6]: 38.2 ± 3.2%; Emax ([7]; Mus musculus, RAW264.7, 24 h; read-out: Reduction in NO levels, RAW Macrophages % peak reduction): 46.1 ± 3%; inhibition of the level of TNF-α induced in RAW cells by LPS (FIG. 3) [8]: inhibition; Emax ([8]; Mus musculus, RAW264.7, 6 h; read-out: Reduction in TNF-α levels, RAW Macrophages % peak reduction): 39.2 ± 2.6%"
"COC(=O)CCC1CN(C)c2cccc(O)c21.Cl (stereo not drawn) [AN-833, Methyl 3-(4-hydroxy-1-methylindolin-3-yl)propanoate hydrochloride]",0.45 ± 0.03,–,–,–,–,no effec ≦ 100 μM,–
"O=C(O)CCC1CNc2cccc(O)c21 (stereo not drawn) [AN-834, 3-(4-hydroxyindolin-3-yl)propanoic acid hydrochloride]",1.44 ± 0.04,–,0.1 to 10,–,–,–,–
"CCN(C)C(=O)Oc1cccc2c1C(CCC(=O)O)CN2 (stereo not drawn) [AN-850, hydrochloride]",1.59 ± 0.39,0.3,–,10^−2-100 nM,10^−3-100 nM,–,"IC50 [2]: 19 µM; Reduction in NO levels, BV2 Microglia % peak reduction [5]: 37.6 ± 5.0%; Reduction in TNF-α levels, BV2 Microglia % peak reduction [6]: 30.5 ± 0.6%; Reduction in TNF-α levels, RAW Macrophages range [8, 12]: None; ChE inhibition in plasma, muscle, and spleen [10]: inhibited ChE"
CCOC(=O)CCC1CNc2cccc(OC(=O)N(C)CC)c21.O=C(O)CC(O)(CC(=O)O)C(=O)O (stereo not drawn) [AN-871],–,–,–,–,–,no effect ≦ 100 μM,–
"CCN(C)C(=O)Oc1cccc2[nH]cc(CCN)c12.Cl [AN-886, 2-(4-((ethyl(methyl)carbamoyl)oxy)-1H-indol-3-yl)ethanaminium hydrochloride]",–,–,–,–,–,no effect ≦ 100 μM,–
"CCN(C)C(=O)Oc1cccc2c1C(CCN)CN2 (stereo not drawn) [AN-890, 3-(2-Aminoethyl)indolin-4-yl ethyl(methyl)carbamate dihydrochloride]",0.07 ± 0.01,0.2,–,None,None,–,"IC50 [9]: 2.13 ± 0.18 µM; Emax [7, 11]: 54.6 ± 2.3%; inhibition of the level of TNF-α induced in RAW cells by LPS (FIG. 3) [8]: inhibition; Emax [8, 13]: 36.6 ± 4.1%; ChE inhibition in plasma, muscle, and spleen [10]: inhibited ChE; ChE inhibition in skeletal muscle ([10]; mice, 1 mg/kg): little or no effect; ChE inhibition in plasma and spleen ([10]; mice, 1 mg/kg, ip and oral, 30 to 120 min): inhibited ChE in plasma and spleen equally well after ip and oral administration"
